Measurements taken from patent US20160304957A1, “TREATMENT AND MODULATION OF GENE EXPRESSION AND SKIN AGING” (DSM NUTRITIONAL PRODUCTS LTD., priority 2006, published 2016).

Legend:
[1] = system: photosensitization; conditions: EPP patients, 180 mg/d; cited from earlier work
[2] = system: non-melanoma skin cancer; conditions: clinical intervention trials; cited from earlier work
[3] = system: skin carcinogenesis; conditions: supplementation, rodents; cited from earlier work
[4] = system: TIMP-1; test: QRT-PCR gene expression in HaCaT cells with or without UVA; assay type: cell-based, human
Experimental: HaCaT cells were obtained from Prof. Fusenig, German Cancer Research Centre, Heidelberg. […] The accuracy of cell counting was approximately 99%.
Vitamin E (RRR-α-tocopherol; DSM Nutritional Products, Kaiseraugst, Switzerland) stock solutions and vitamin E-containing media were prepared as described for β-carotene-containing solutions, except that vitamin E was dissolved in ethanol. In experiments addressing the vitamin E effect, vitamin E was used in a final concentration of 50 μM. Again, the solvent concentration was kept constant at 0.03% ethanol for all conditions.
On day 3 of the experiment, cells were washed six times with Ca/Mg-free PBS containing 2% BSA, and then irradiated with light with a Hönle sun lamp Sol 500 (Dr. Hönle, Plannegg, Germany) at a dose of 270 kJ/m^2 in Ca/Mg-free PBS (2 hour exposure time at […]). The experimental schedule was chosen because the cells had optimal UVA sensitivity after 48 hours in culture. […] Confluent cultures were much less sensitive to irradiation. […]
cDNA corresponding to 10 ng total RNA was used as template to quantify the relative RNA expression of the genes of interest by TaqMan® real time PCR.
The PCR analyses were carried out in triplicate and in a multiplex setup, using 18S rRNA as a calibrator gene. […] For quantification of the genes of interest, the primer concentrations were optimized for sensitivity of template detection. […] Regulation of gene expression was calculated as described in user bulletin #2 provided by the manufacturer. A threshold cycle (“CT”) is the first PCR cycle in which an amplification signal is detected. […] The δCT value describes the level of gene expression as the average PCR cycle, in which the gene of interest was detected first (CT value), subtracted by the CT value of the calibrator gene 18S rRNA (CTgene of interest−CTcalibrating gene), 18S rRNA served as a measure for the amount of template in the reaction. Routinely, 18S rRNA was detected between PCR cycle 12 and 13 (SE=standard error) A low δCT corresponds to a high mRNA level.

CC1=C(/C=C/C(C)=C/C=C/C(C)=C/C=C/C=C(C)/C=C/C=C(C)/C=C/C2=C(C)CCCC2(C)C)C(C)(C)CCC1 [β-carotene, All-E-β-carotene]
symptoms of photosensitization [1]: alleviated the symptoms of photosensitization
prevention of non-melanoma skin cancer [2]: no significant prevention
skin carcinogenesis [3]: reduced skin carcinogenesis
TIMP-1 expression ([4]; UVA/D2O experiments): not significantly influenced
TIMP-1 RNA level ([4]; β-carotene, with or without UVA): not significantly influenced
